According to patent US11723897B2, “Fatty acids as anti-inflammatory agents” (University of Pittsburgh—Of the Commonwealth System of …, priority 2009, dated 2023):
Entries after “also recorded” stand apart in the source; their conditions may differ. Read-outs that look alike come from different tables or passages of the source.

Tests used:
[1] = system: EFAD formation in RAW264.7 cells; assay: Inhibitor study: EFAD formation in RAW264.7 cells activated with Kdo2 and IFNγ; type: cell-based, murine; conditions: for Effect of inhibitor on EFAD-1 formation / Effect of inhibitor on EFAD-2 formation / Effect of inhibitor on EFAD-3 formation / Effect of inhibitor on EFAD-4 formation / Effect of inhibitor on EFAD-6 formation / Effect of inhibitor on EFAD-5 formation: RAW264.7 + Kdo2 + IFNγ, ↓ decrease, ↑ increase, NE (not defined in patent)
RAW264.7 cells [2] = assay: Cytokine levels (IL-6, MCP-1, IL-10) in Kdo2+IFNγ-activated RAW264.7 cells; type: cell-based, murine
[3] = system: inducible nitric oxide synthase (iNOS); assay: Nitrite, iNOS and Cox-2 levels in Kdo2+IFNγ-activated RAW264.7 cells; type: cell-based, murine; conditions: for iNOS induction and accumulation of nitrite in the cell media: RAW264.7
Procedure: FIG. 11a-11e illustrates modulation of anti-oxidant and inflammatory responses by 17-oxoDHA and 17-oxoDPA. RAW264.7 cells were treated with increasing concentration of 17-oxoDHA and 17-oxoDPA. (a) Cells were harvested 1 h after treatment and Nrf2 levels were quantified in nuclear extracts. (b) Cells were harvested 18 h after treatment and HO-1 and Nqo1 (upper band) levels were measured by western blot. (c, d) RAW264.7 cells were treated with increasing concentration of 17-oxoDHA and 17-oxoDPA for 6 h and Kdo2+IFNγ were added. Samples were collected at 12 h. IL-6, MCP-1 and IL-10 levels were measured in the cell media by Quantikine ELISA Kit (R&D Systems) and normalized by the total protein content (c); Nitrite levels were measured in the cell media and normalized by the total protein content and iNOS and Cox-2 levels were measured in total cell lysates (d); (e) PPARγ beta-lactamase reporter assays were performed for Rosiglitazone, 17-OxoDPA, 17-OxoDHA, 15d-PGJ2, 17-hydroxyDHA, DPA, and DHA with concentrations ranging from 0.5-10,000 nM.
For activation experiments RAW 264.7 cells were seeded, incubated overnight, and treated at approximately 80% confluence with the indicated compounds 47. Non-activated controls were treated with vehicle alone. During activation, cells were maintained in an activation medium (SMEM) of Minimum Essential Medium Eagle (Cellgro, 17-305)+2% FBS supplemented with L-glutamine (584 mg/L), Na-pyruvate (110 mg/L) and Hepes (3.57 g/L, pH 7.4). For inhibition studies, inhibitors were added to the medium at the time of activation and MTT assays were used to confirm cell viability. Cells were harvested 20 h post activation (unless otherwise indicated) in 50 mM phosphate buffer (pH 7.4) and snap frozen in liquid N2. THP-1 cells were differentiated with PMA (86 nM) for 16 h, activated with IFNγ (200 U/ml) and Kdo2 lipid A (0.5 μg/ml) in RPMI+2% FBS and harvested 40 h after differentiation. For treatment with EFADs alone, 17-oxoDHA and 17-oxoDPA were added to cell culture media at the indicated concentrations and for the indicated time period. For treatment with EFADs coupled with pro-inflammatory stimulation, addition of 17-oxoDHA and 17-oxoDPA was followed by addition of Kdo2 and IFNγ at 6 h.
Protein concentrations of samples were measured by BCA assay (Pierce). The following primary antibodies were used: Nrf2 (Santa Cruz, sc-722), HO-1 (Assay Design, SPA-896), Nqo1 (Abcam, ab34173), Cox-2 (Santa Cruz, sc-1745), iNOS (BD Transduction Lab, 610332), Lamin B1 (Abcam, ab16048). Actin (detected by Sigma A2066) was used as loading control. […]
Total nitrite and nitrate concentration was measured in cell culture media by Griess reaction using the Nitrate/Nitrite Colorimetric Assay Kit (Cayman Chemical).

[4] = system: Nrf2-dependent anti-oxidant response pathway; assay: Nrf2 nuclear accumulation and HO-1/Nqo1 expression (western blot) in RAW264.7 cells; type: cell-based, murine; conditions: for Nrf2 nuclear accumulation: nuclear extracts, 1 h after treatment; for Expression of HO-1 and Nqo1: western blot, 18 h after treatment
rabbit GAPDH = rabbit GAPDH (Oryctolagus cuniculus, UniProt P46406); assay: In vitro reaction of GAPDH with EFAD (mass spectrometry); type: binding; conditions: Cys244, Cys149, His163, His328
Procedure: FIG. 21a-21h illustrates the mass spectrometric analysis of an in vitro reaction of GAPDH with EFAD-2. Four residues were detected and confined as being targets for EfAD-2 in treated rabbit GAPDH. The peptides were alkylated as Cys244 (a), His163 (b), Cys149 (c) and His328 (d). Upper panels show EFAD-2 modified peptides and lower panels show spectra from corresponding native peptide.
To more specifically test the binding of EFADs to nucleophilic residues in proteins, we tested whether GAPDH was alkylated by EFADs. This enzyme is a well-characterized target for electrophiles and becomes easily inactivated by nitrosylation, oxidation or nucleophilic addition.

RAW264.7 cells [5] = assay: Fatty acid supplementation study in activated RAW264.7 cells; type: cell-based, murine; conditions: 32 μM fatty acid for 3 days, then Kdo2 + IFNγ, 20 h
Procedure: (a) A characteristic BME electrophile adduct fragmentation pattern. showing the major neutral loss of 78 amu (corresponding to the loss of BME) is represented by the enhanced product ion analysis of EFAD-2. (b) RAW264.7 cells were grown for 3 days in DMEM and 10% FBS supplemented with 32 μM of the indicated fatty acid. On the third day cells were activated with Kdo2 (0.5 μg/ml)) and IFNγ (200 U/ml) and EFAD-2 levels were quantified 20 h post activation. (c) Diagram of NaBH4 reduction of oxo-group to an alcohol group. (d) MRM scans monitoring for the mlz transition of 343.2/299.2 (oxo-DPA losing CO2) in RAW264.7 cell lysates purified for EFAD-2, non-treated or treated with NaBH4 (upper and lower panel); MRM scans monitoring for the mlz transition of [345.2/327.2 (hydroxy-DPA/neutral loss of H20) in RAW264.7 cell lysates purified for EFAD-2 and treated with NaBH4. (e) MS/MS fragmentation of EFAD-2 purified from activated RAW 264.7 cells and reduced with NaBH4.
FIG. 16a-16b illustrates that EFAD-1 and -3 are derived from the n-3 series of fatty acids. RAW264.7 cells were grown for 3 days in DMEM and 10% FBS supplemented with 32 μM of the indicated fatty acid. On the third day cells were activated with Kdo2 Lipid A (0.5 μg/ml) and IFNγ (200 U/ml) and EFAD-1 and -3 levels were quantified 20 h post activation.
Similarly, the EFAD of DHA (EFAD-1) and the EFAD of DTA (EFAD-3), were identified as mono-oxygenated derivatives of a 22-carbon fatty acid with a total of six and four double bonds, respectively. To elucidate the precursors in vivo, fatty acid supplementation studies were performed. […] Moreover, as illustrated in FIG. 4 EFAD-2 formation is COX-2 dependent.

[6] = Mus musculus, RAW264.7, genistein 25 μM, MAFP 25 μM, ibuprofen 100 μM, 20 h, read-out: Inhibition of EFAD production
[7] = MK886 500 nM, ETYA 25 μM, OKA 50 nM, indomethacin 25 μM, diclofenac 1 μM, NS-398 4 μM, 20 h

Chain of rabbit GAPDH (P46406 whole entry): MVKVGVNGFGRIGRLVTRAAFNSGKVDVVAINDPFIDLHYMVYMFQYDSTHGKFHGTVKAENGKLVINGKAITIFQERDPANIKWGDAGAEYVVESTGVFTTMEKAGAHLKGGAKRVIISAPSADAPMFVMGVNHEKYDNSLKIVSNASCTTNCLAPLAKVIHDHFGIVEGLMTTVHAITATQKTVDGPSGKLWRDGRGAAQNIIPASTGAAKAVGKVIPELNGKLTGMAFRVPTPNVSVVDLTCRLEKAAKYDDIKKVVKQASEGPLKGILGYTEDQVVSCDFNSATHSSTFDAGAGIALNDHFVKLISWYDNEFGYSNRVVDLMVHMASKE

Structure (SMILES)	Effect of inhibitor on EFAD-1 formation ([1]; 20 h)	Effect of inhibitor on EFAD-2 formation ([1]; 20 h)	Effect of inhibitor on EFAD-3 formation ([1]; 20 h)	Effect of inhibitor on EFAD-4 formation ([1]; 20 h)	Effect of inhibitor on EFAD-6 formation ([1]; 20 h)	Effect on EFAD formation (in words) [1, 7]	Effect of inhibitor on EFAD-5 formation ([1]; 20 h)	further results
CC(C)Cc1ccc(C(C)C(=O)O)cc1 (racemic) [Ibuprofen]	↓	↓	↓	↓	↓			inhibition at 100 µM [1, 6]: > 80%; Effect of inhibitor on EFAD-1 formation ([1]; 20 h, listed as ibuprofen): no significant effect
CC/C=C\CC(=O)C=C/C=C\C/C=C\C/C=C\C/C=C\CCC(=O)O [17-oxoDHA, 17-oxo-(4Z,7Z,10Z,13Z,15A,19Z)-docosa-4,7,10,13,15,19-hexanoic acid]								IFNγ and LPS-induced cytokine production (RAW264.7 cells [2]): inhibited IFNγ and LPS-induced cytokine production in a dose-dependent manner; Reduction of nitrite production ([3]; 20 μM): ~70%; iNOS induction and accumulation of nitrite in the cell media [3]: dose-dependent inhibition; Nrf2 nuclear accumulation [4]: promoted dose-dependent; also recorded: promoting nuclear accumulation of Nrf2; Expression of HO-1 and Nqo1 [4]: promoted dose-dependent; also recorded: promoting; Adduct formation with GAPDH residues (rabbit GAPDH): covalently bind Cys and His residues
CC/C=C\CC(=O)C=C/C=C\C/C=C\C/C=C\CCCCCC(=O)O [17-oxoDPA, 17-oxo-(7Z,10Z,13Z,15A,19Z)-docosa-7,10,13,15,19-pentanoic acid]								IFNγ and LPS-induced cytokine production (RAW264.7 cells [2]): inhibited IFNγ and LPS-induced cytokine production in a dose-dependent manner; Reduction of nitrite production ([3]; 25 μM): ~70%; iNOS induction and accumulation of nitrite in the cell media [3]: dose-dependent inhibition; Nrf2 nuclear accumulation [4]: promoted dose-dependent; also recorded: promoting nuclear accumulation of Nrf2; Expression of HO-1 and Nqo1 [4]: promoted dose-dependent; also recorded: promoting; Adduct formation with GAPDH residues (rabbit GAPDH): covalently bind Cys and His residues
CC/C=C/C/C=C/C/C=C/C/C=C\C/C=C/C/C=C/CCC(=O)O [DHA, (4E,7E,10Z,13E,16E,19E)-docosa-4,7,10,13,16,19-hexanoic acid]								EFAD-1 formation after fatty acid supplementation (RAW264.7 cells [5]): increased; EFAD-2 formation after fatty acid supplementation (RAW264.7 cells [5]): did not increase
O=C(O)Cc1ccccc1Nc1c(Cl)cccc1Cl [Diclofenac]	↓	↓	↓	↓	↓	completely abolish	↓	
CC/C=C\C/C=C\C/C=C\C/C=C\C/C=C\CCCC(=O)O [EPA, (5Z,8Z,11Z,14Z,17Z)-eicosa-5,8,11,14,17-pentanoic acid]								EFAD-2 formation after fatty acid supplementation (RAW264.7 cells [5]): significantly increased
CCCCCC#CCC#CCC#CCC#CCCCC(=O)O [ETYA, Eicosatetraynoic acid]	↓	↓	↓	↓	↓	strongly inhibit	↓	
COc1ccc2c(c1)c(CC(=O)O)c(C)n2C(=O)c1ccc(Cl)cc1 [Indomethacin]	↓	↓	↓	↓	↓	completely abolish	↓	
CC(C)c1ccc2c(c1)c(SC(C)(C)C)c(CC(C)(C)C(=O)O)n2Cc1ccc(Cl)cc1 [MK886]						no significant effect		
CS(=O)(=O)Nc1ccc([N+](=O)[O-])cc1OC1CCCCC1 [NS-398]						abolished		
C=C1[C@@H](O)[C@@H]2O[C@]3(CC[C@H](/C=C/[C@@H](C)[C@@H]4CC(C)=C[C@@]5(O[C@H](C[C@@](C)(O)C(=O)O)CC[C@H]5O)O4)O3)CC[C@H]2O[C@@H]1[C@@H](O)C[C@H](C)[C@H]1O[C@@]2(CCCCO2)CC[C@H]1C [OKA, okadaic acid]								Effect on EFAD formation (in words) [1]: slight increase
O=c1c(-c2ccc(O)cc2)coc2cc(O)cc(O)c12 [genistein]	↓	↓	↓	↓	↓		↓	inhibition at 25 µM [1, 6]: > 50%
CC/C=C\C/C=C\C/C=C\CCCCCCCC(=O)O [α-linolenic acid]								EFAD-2 formation after fatty acid supplementation (RAW264.7 cells [5]): significantly increased
